Data on one compound can be found in patent US20220265759A1, “COMPOSITION AND METHOD FOR PROMOTING WOUND HEALING” (THE BOARD OF TRUSTEES OF THE UNIVERSITY OF ILLIOIS, priority 2019, published 2022).

One data set has as its system eNOS. Nature of the data set: eNOS protein level in WT mouse wounds. The format is in vivo, WT C57BL/6 mice. The following applies: day 7, compared to control peptide.
For data set [1], the system named is CD31, CCR10, CCL28, IL-6, IL-4, HGF mRNA. The experiment in a line: Real-time RT-PCR of mRNA levels in WT mouse dermal wounds. The format is in vivo, WT C57BL/6 mice. On the procedure: Real-Time RT-PCR. Total cellular RNA from mouse skin wounds was extracted using nucleic acid extraction reagent sold under the tradename TRIZOL®. mRNA expression of different genes was examined by real-time RT-PCR that employed a SYBR Green PCR mix. Relative gene expression was determined by the ΔΔCt method based on GAPDH levels as described previously (Chen, et al. (2013) J. Immunol. 190:5256-5266).

A further data set deals with T1, CCR10-eNOS interaction (Mus musculus, UniProt Q9JL21).
T1 construct: cells or mouse wounds were collected after treatment, and lysed in 2% ODG in Tris buffer; tissue Jackson Laboratory; host or cells: dorsal skin wounds of WT C57BL/6 or db/db mice
T1 sequence (Q9JL21 1-362): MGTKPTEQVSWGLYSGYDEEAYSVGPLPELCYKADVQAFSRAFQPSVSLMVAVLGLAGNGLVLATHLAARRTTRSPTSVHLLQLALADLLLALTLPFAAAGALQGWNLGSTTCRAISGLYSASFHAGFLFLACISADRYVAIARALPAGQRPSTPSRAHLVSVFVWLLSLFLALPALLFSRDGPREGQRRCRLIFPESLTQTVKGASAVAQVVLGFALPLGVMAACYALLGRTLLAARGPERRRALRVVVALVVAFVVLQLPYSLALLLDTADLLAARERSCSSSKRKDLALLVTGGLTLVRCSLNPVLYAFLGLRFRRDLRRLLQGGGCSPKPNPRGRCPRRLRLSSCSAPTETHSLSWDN
The experiment in a line: Co-IP of CCR10-eNOS interaction in db/db mouse wounds. The format is in vivo, db/db mice. To be noted: day 12, vs Ctl-P. On the procedure: (§1) Co-IP Experiments, cells or mouse wounds were collected after treatment, and lysed in 2% ODG in Tris buffer. The homogenates were further prepared for Co-IP experiments as described in the art (Chen, et al. (2018) Mol. Biol. Cell 29(10):1190-1202; Chen, et al. (2020) FASEB J. 34(4):5838-5850; Chen, et al. (2015) Ann. Rheum. Dis. 74:1898-1906).
(§2) Two 8 mm full thickness excisional wounds were made on the dorsal skin of diabetic db/db mice and then 50 μl of 50 μM Myr-CBD7 peptide was topically applied. […] Reduced CCR10-eNOS interaction was also observed in the mouse wounds following treatment with Myr-CBD7 peptide as determined by Co-IP (FIG. 6).

The test system of the next data set is CD31. The experiment in a line: Microvessel density (CD31 staining) in db/db mouse wounds. The format is in vivo, db/db mice. To be noted: day 12.
Text: CD31 Staining in Mouse Wound Tissue. Formalin-fixed mouse skin samples were processed on ASP300 S automated tissue processor (Leica Biosystems, Buffalo Grove, Ill.) using a standard overnight processing protocol and embedded into paraffin blocks. Tissue was sectioned at 5 μm and stained with rabbit anti-CD31 antibody. Sections were deparaffinized, rehydrated, and stained on BOND″ RX automated stainer (Leica Biosystems, Buffalo Grove, Ill.) using a preset protocol. In brief, sections were subjected to EDTA-based antigen retrieval with BOND™ ER2 solution (Leica Biosystems, Buffalo Grove, Ill.) for 20 minutes at 100° C. Endogenous peroxidase activity and non-specific binding was blocked by treating samples with peroxidase block and protein block with Background Sniper (Biocare Medical, Pacheco, Calif.) for 15 minutes and 30 minutes at room temperature, respectively. Sections were then incubated with the primary antibody diluted at 1:200 for 30 minutes at room temperature. BOND™ Polymer Refine Detection kit (Leica Biosystems, Buffalo Grove, Ill.) was used for detection. […]
as §2

Data set [2] relates to eNOS and CCR10 interaction with LAMP1. The experiment in a line: eNOS internalization and degradation in HDMVECs stimulated with CCL28 (Co-IP with LAMP1, confocal microscopy). In kind it is cell-based, human. On the procedure:
as §1
Confocal Microscopy. For cellular immunostaining, confluent monolayers of cells grown on coverslips were prepared as described previously (Chen, et al. (2012) Mel. Biol. Cell 23(7):1388-1398). Fluorescent images were obtained using a Zeiss LSM 880 confocal microscope. The co-localization coefficient in specified regions of interest (ROI) were determined using Zeiss Zen software. Briefly, using the Overlay tool, the desired ROI was drawn along the cell edge and the values for the ROIs tabulated. The scatterplot and table were automatically adjusted to the pixel distribution for the selected ROI. The data from different treatment groups were collected and analyzed for statistical significance as described previously (Chen, et al. (2020) FASEB J. 34(4):5838-5850). […]
Since myristoylated 7 amino acid CCR10-binding domain (Myr-CBD7) peptide can block eNOS interaction with CCR10 and increase eNOS activity in HUVECs, it was assessed whether Myr-CBD7 can prevent eNOS internalization and degradation in HDMVECs following CCL28 stimulation. […]

In another data set the test system is HEK/eNOS cells. Nature of the data set: NO production in HEK/eNOS cells. The format is cell-based, human. To be noted: HEK/eNOS cells with/without co-expression of CCR10-GFP, pretreatment, compared with control peptide.

The structures appear in SMILES notation. “Also recorded” adds a separate entry of the source. Peptide text beside a SMILES is read from it. * marks the point of attachment. Myristoyl = CCCCCCCCCCCCCC(=O)*

For `CCCCCCCCCCCCCC(=O)N[C@@H](CCCCN)C(=O)N[C@H](C(=O)N[C@@H](CO)C(=O)N[C@@H](C)C(=O)N[C@@H](CO)C(=O)N[C@@H](CC(C)C)C(=O)N[C@@H](CCSC)C(=O)O)[C@@H](C)CC` [Myr-CBD7, myr-KISASLM] (Myristoyl-KISASLM-OH), the “eNOS protein level in wounds” value in the data set with eNOS is “enhanced”. Also, in data set [1] (wounds day 7), the “CCL28 mRNA level” value is “reduction”, the “CCR10 mRNA level” value is on record as “did not change”, the “CD31 mRNA level” value is “elevated” and the “IL-4 mRNA level” value is listed as “enhancing”. Further, the “IL-6 mRNA level” value in data set [1] (wounds day 7) was “reduction”. Moreover, in data set [1] (wounds day 7, non-significant), the “increase of hepatocyte growth factor (HGF) mRNA level” value is 35%. Further, the “CCR10-eNOS interaction in wounds (Co-IP)” value on CCR10-eNOS interaction is “Reduced; also recorded: disrupted”. Moreover, the “microvessel density (CD31 staining)” value with CD31 was “enhanced”. In data set [2] (HDMVECs, pretreatment, CCL28 stimulation, compared to scrambled control peptide), the “eNOS interaction with LAMP1” value was “prevented”. Also, in data set [2] (pretreatment prior to CCL28 for 3 hours), the “eNOS localization (confocal microscopy)” value is listed as “remained on the plasma membrane”. For the same compound, the NO production entry in the data set with HEK/eNOS cells is recorded as “elevated significantly”.
